Assay results published in patent US5747504A, “Method of treating cardiac insufficiency using angiotensin-converting enzyme inhibitors” (priority 1984, dated 1998).

Experiments:
Format in all cases: in vivo
[1] = system: isolated heart; experiment: Postganglionic sympathetic stimulation on the isolated heart after oral pretreatment; details: oral pretreatment with 1 mg/kg perorally, rabbits
Source text: Postganglionic sympathetic stimulation on the isolated heart leads, via increased catecholamine release, to an increase in heart rate and contractility and to a decrease in coronary blood flow. […] These effects act together to protect the incompetent heart.

[2] = system: isolated heart; experiment: Effect of angiotensin I and bradykinin on coronary blood flow in the isolated heart after oral pretreatment; details: isolated heart of rabbits, guineapigs and rats
Method: Angiotensin I decreases whilst bradykinin increases the coronary blood flow in the isolated heart of rabbits, guineapigs and rats. […] The same effect can only be achieved with 30 mg/kg of enalapril.

[3] = system: ACE in the heart; experiment: Inhibition of ACE in the heart after oral treatment of spontaneously hypertensive rats
Method: It is known that converting enzyme inhibitors are capable of inhibiting the enzyme not only in the serum but also in various tissues, and especially also in the heart.
In contrast, with 30 mg/kg of N-(1-carbethoxy-3-phenyl-propyl)-S-alanyl-S-proline (enalapril) perorally, already no further significant inhibition is observed after more than 6 hours.

[4] = oral pretreatment with 1 mg/kg perorally

SMILES	influence of postganglionic sympathetic stimulation on contractility [1]	influence of postganglionic sympathetic stimulation on coronary blood flow [1]	influence of postganglionic sympathetic stimulation on heart rate [1]	action of bradykinin on coronary blood flow [2, 4]	effect of angiotensin I on coronary blood flow [2, 4]	inhibition of the ACE in the heart at the end of treatment ([3]; chronic oral treatment for two weeks with 1 mg/kg) [%]	duration of significant inhibition of the ACE in the heart ([3]; single oral dose of 1 mg/kg) [h]	action of bradykinin on coronary blood flow ([2]; 30 mg/kg)	effect of angiotensin I on coronary blood flow ([2]; 30 mg/kg)	duration of significant inhibition of the ACE in the heart ([3]; 30 mg/kg perorally) [h]	inhibition of the ACE in the heart at the end of treatment ([3]; chronic oral treatment for two weeks with 30 mg/kg perorally)
CCOC(=O)[C@H](CCc1ccccc1)N[C@@H](C)C(=O)N1[C@H](C(=O)O)C[C@@H]2CCC[C@@H]21 [compound of the formula II, N-(1-S-carbethoxy-3-phenyl-propyl)-S-alanyl-cis-endo-2-azabicyclo[3,3,0]octane-3-S-carboxylic acid]	unaffected	significantly reduces	significantly reduces	increases	significantly reduces	55	> 24				
CCOC(=O)[C@H](CCc1ccccc1)N[C@@H](C)C(=O)N1CCC[C@H]1C(=O)O [enalapril, N-(1-carbethoxy-3-phenyl-propyl)-S-alanyl-S-proline, reference compound]								same effect	same effect	≤ 6	no inhibition is observed
